Measurements: US8440625B2, “Secreted protein acidic and rich in cysteine (SPARC) as chemotherapeutic sensitizers” (University of British Columbia, priority 2006, dated 2013)
Entries after “also recorded” stand apart in the source; their conditions may differ.

Experiments:
MIP/5FU cells = assay: Peptide assay, cell viability (MTS), 5FU resistant cells; assay type: cell-based; details: for cell viability / sensitivity to 5-FU: peptide 96 or 200 μg/ml plus 5-FU 500 μM, compared to 5-FU alone
Protocol: (§1) Resistant MIP101 cells were developed following long-term incubation with incremental concentrations of 5 fluorouracil (5-FU) (10-500 uM), irinotecan (CPT) (1-50 uM; Pharmacia), cisplatin (CIS) (1-100 uM) or etoposide (ETO) (0.1-5 uM: Sigma-Aldrich). The concentration of each agent was increased 10% every 2 weeks for a 6 month period.
(§2) Sensitive MIP 101 and resistant MIP/5FU cells were seeded at a density of 8,000 cells/well (96-well plate) in DMEM supplemented with 10% FBS, 1% penicillin/streptomycin. After incubation at 37° C. with 5% CO2 for 48 hrs, the media was removed and fresh serum-free conditioned medium (VP-SFM, Invitrogen) containing the peptide of interest was incubated for an additional 48 hrs in the presence or absence of 500 μM 5-FU. Cell viability was assessed by MTS assay.
(§3) Peptides were custom synthesized by Sigma. Peptides A, A1, A2, A3 were dissolved in 0.1% DMSO. Peptides B8, B14, B8-scramble and B14-scramble were dissolved in PBS. For the MTS cell viability assay, a dose response curve was obtained using a “high” peptide concentration of 200 μg/ml, and a “low” peptide concentration of […].
(§4) For the MTS assay, 3-(4,5-dimethylthiazol-2-yl)-5-(3-carboxy-methoxyphenyl)-2-(4-sulfophenyl)-2H-tetrazolium inner salt (MTS) and phenazine methosulfate (PMS), purchased from Promega (Madison, Wis.), were mixed in the proportions 2:0.92 μg/ml, and 25 μl of the mixture was added to each well. After incubation at 37° C. with 5% CO2 for 2 h, the absorbance of each well at 490 nm was measured in a 96-well plate reader (Versa Max, version 4.8, Molecular Devices Co.) according to the manufacturer's instructions. Cell viability was expressed as a percentage of control.

MIP 101 cells = assay: Peptide assay, cell viability (MTS), 5FU sensitive cells; assay type: cell-based; details: for cell viability: 96 or 200 μg/ml
Protocol: as §2, §3, §4

MIP/CPT cells = assay: Transient transfection of SPARC fragments, cell viability (MTS) with irinotecan, resistant cells; assay type: cell-based; details: cells transfected with control (empty vector), 500 uM CPT-11
Protocol: Polynucleotide fragments corresponding to SEQ ID NO: 2, SEQ ID NO: 4 or SEQ ID NO: 6 were amplified by PCR and inserted into the pSecTag vector (Invitrogen), and verified by sequencing.
Colorectal cell lines MIP101 and MIP/CPT cells were maintained in Dulbecco's modified Eagle's medium (DMEM) (Invitrogen) supplemented with 10% fetal bovine serum (FBS) (Invitrogen), 1% penicillin/streptomycin (Invitrogen) at 37° C. and 5% CO2.
as §1
Transient transfections were performed as previously described (Tai TC et al., 2001. J Neurochem; 76:1851-9) Briefly, MIP 101 colorectal cancer cells and resistant MIP/CPT cells grown to 50-60% confluency in 96-well tissue culture plates were transfected with 1.0 μg of vector (control) or vector+SPARC fragments using PEI transfection (Tai, T. C. et al., 2002. Mol Pharmacol 61:1385-92). […] Cell proliferation was assessed by MTS assay (Promega). […]

resistant tumours = details: protein administered; response of resistant tumours to 5-fluorouracil, irinotecan, cisplatin or etoposide; cited from earlier work
[1] = peptide alone, high concentration (200 μg/ml)
[2] = peptide high concentration (200 μg/ml) in combination with 5-FU 500 μM

Molecule | % cell viability (MIP 101 cells; [1]) | % cell viability (MIP 101 cells; [2]) | % cell viability (MIP/5FU cells; [1]) | % cell viability (MIP/5FU cells; [2]) | also measured
O=c1[nH]cc(F)c(=O)[nH]1 [Peptide 5-FU, 5-fluorouracil, reference compound] | – | – | – | – | cell viability (MIP/5FU cells; 5-FU alone (500 μM)): greater viability; also recorded: no effect on cell viability
A3: first 17 amino acids of SPARC with additional N-terminal residues: CLPPACLPLRVPSTMRAWIFFLLCLAGRALA (listed as Homo sapiens) [Peptide A3] | did not significantly affect | did not significantly affect | did not significantly affect | did not significantly affect | –
B14: SPARC peptide CQNHHCKHGKVCELDENNTPMCVCQDPTSCP (SEQ ID NO: 9) (listed as Homo sapiens) [Peptide B14] | – | – | – | – | cell viability (MIP 101 cells; peptide alone): did not significantly affect viability; cell viability / sensitivity to 5-FU (MIP/5FU cells): cell viability decreased; cell viability (MIP/5FU cells; peptide alone, 96 or 200 μg/ml): did not significantly affect viability
A2: first 17 amino acids of SPARC with additional N-terminal residues: ACLPLRVPSTMRAWIFFLLCLAGRALA (listed as Homo sapiens) [Peptide A2] | did not significantly affect | did not significantly affect | did not significantly affect | did not significantly affect | –
A: first 17 amino acids of full length SPARC with additional N-terminal residues: ESALCLPPACLPLRVPSTMRAWLFFLLCLAGRALA (ESALCLPPACLPLRVPSTMRAWIFFLLCLAGRALA; listed as Homo sapiens) | did not significantly affect | did not significantly affect | did not significantly affect | did not significantly affect | –
B8-SCR: scrambled B8 negative control peptide QPLEAVQPTAVEEDAEVETTEEV (B8 scrambled) [Peptide B8-SCR, reference compound] | did not significantly affect | did not significantly affect | did not significantly affect | did not significantly affect | –
A1: first 17 amino acids of the full length SPARC protein: MRAWIFFLLCLAGRALA (listed as Homo sapiens) [Peptide A1] | did not significantly affect | did not significantly affect | did not significantly affect | did not significantly affect | –
H-APQQEALPDETEVVEETVAEVTE-OH [Peptide B8] | – | – | – | – | cell viability (MIP 101 cells; peptide alone): did not affect cell viability; cell viability / sensitivity to 5-FU (MIP/5FU cells): increasing sensitivity of the resistant cells; cell viability (MIP/5FU cells; peptide alone, 96 or 200 μg/ml): did not affect cell viability
CCc1c2c(nc3ccc(OC(=O)N4CCC(N5CCCCC5)CC4)cc13)-c1cc3c(c(=O)n1C2)COC(=O)[C@]3(O)CC [CPT-11, irinotecan] | – | – | – | – | cell viability (MIP/CPT cells): remained viable
Secreted protein acidic and rich in cysteine (protein, listed as Homo sapiens, 303 amino acid SPARC protein, also known as osteonectin) MRAWIFFLLCLAGRALAAPQQEALPDETEVVEETVAEVTEVSVGANPVQVEVGEFDDGAEETEEEVVAENPCQNHHCKHGKVCELDENNTPMCVCQDPTSCPAPIGEFEKVCSNDNKTFDSSCHFFATKCTLEGTKKGHKLHLDYIGPCKYIPPCLDSELTEFPLRMRDWLKNVLVTLYERDEDNNLLTEKQKLRVKKIHENEKRLEAGDHPVELLARDFEKNYNMYIFPVHWQFGQLDQHPIDGYLSHTELAPLRAPLIPMEHCTTRFFETCDLDNDKYIALDEWAGCFGIKQKDIDKDLVI | – | – | – | – | chemosensitizing activity (resistant tumours): chemosensitizing activity has been demonstrated
